US10278965B2, “Method of detecting cancer stem cell, method of screening cancer stem cell, and method of inhibiting cancer stem cell” (CANON KABUSHIKI KAISHA, priority 2012, dated 2019)

Columns and labels:
[1] = Measurement of fluorescent property of compound; type: physicochemical; conditions: 5 μM DMSO solution
Experimental: The excitation wavelength and fluorescence wavelength of the compound were measured by a FL4500 spectrofluorometric measuring machine manufactured by Hitachi High-Technologies Corporation.

[2] = system: Prostatic cancer cells, PC-3; experiment: Cancer cell inhibitory (growth suppressive) action against prostatic cancer cells, CellTiter-Glo viable cell count; type: cell-based; conditions: PC-3, 10 μg/mL, 24 hours
Experimental: Prostatic cancer cells, PC-3, were pre-cultured in RPMI1640 medium containing 10% FBS at 37° C. in a 5% CO2 ambient. Thereafter, 4,000 cells were seeded per well of a 96-well plate and further cultured for 24 hours. Subsequently, Compound (1) was added to the medium so as to obtain a final concentration of 10 μg/mL and cultured at 37° C. for 24 hours in a 5% CO2 ambient. The cultured cells were analyzed for viable cell count according to Cell Titer-Glo Luminescent Cell Viability Assay (manufactured by Promega KK.).
Viable cell count was analyzed in the same manner as in Experimental Example 24 except that Compound (1) of Experimental Example 24 was changed to each compound shown in Table 2.
Viable cell count was analyzed in the same manner as in Experimental Example 24 except that Compound (1) of Experimental Example 24 was changed to each of Comparative compounds 1 to 4, to obtain growth rates.
Note that the growth rate used in Examples refers to the rate (expressed by percentage) of viable cell count after culture relative to the number of cells at the initiation of cell culture. Evaluation criteria are the same as in the above experiments.

[3] = system: Human chronic myelocytic leukemia cells, K562, ALDH (+) fraction (cancer stem cells); experiment: Cancer stem-cell selective inhibitory action against chronic myelocytic leukemia cells, ALDH (+) fraction; type: cell-based; conditions: 24 hours; for ALDH(+) growth rate / Growth suppression evaluated: K562 ALDH(+), 10 μg/ml
Experimental: (§1) Human chronic myelocytic leukemia cells, K562, were pre-cultured in RPMI1640 medium containing 10% FBS at 37° C. in a 5% CO2 ambient. Then, a fraction containing 80% or more of cancer stem cells was extracted by use of a cancer stem cell marker, ALDEFLUOR reagent (manufactured by VERITAS Corporation) and FACSAria flow cytometry (manufactured by Nippon Becton, Dickinson and Company). […] The cultured cells were analyzed for viable cell count according to CellTiter-Glo Luminescent Cell Viability Assay (manufactured by Promega KK.). […] Note that hereinafter, an ALDEFLUOR reagent positive fraction (deemed as cancer stem cells) is represented by ALDH (+), whereas an ALDEFLUOR reagent negative fraction (not deemed as cancer stem cells) is represented by ALDH (−), in some cases.
(§2) Further, the growth suppressive effect of cancer stem cells was evaluated based on the following criteria. Note that the growth rate in Examples is a value obtained by dividing viable cell count after culture by the number of cells at the initiation time of culture.

[4] = system: Human pancreas cancer cells, KLM-1; experiment: Cancer cell inhibitory (growth suppressive) action against pancreatic cancer cells, CellTiter-Glo viable cell count; conditions: KLM-1, 10 μg/mL, 24 hours
Experimental: Human pancreas cancer cells, KLM-1, were pre-cultured in RPMI1640 medium containing 10% FBS at 37° C. in a 5% CO2 ambient. Thereafter, 4,000 cells were seeded per well of a 96-well plate and further cultured for 24 hours. […] The cultured cells were analyzed for viable cell count according to CellTiter-Glo Luminescent Cell Viability Assay (manufactured by Promega KK.).
Evaluation of cancer cell inhibition against the pancreatic cancer cells (KLM-1) (growth suppression) was made based on the following criteria. Note that the growth rate used in Examples refers to the rate (expressed by percentage) of viable cell count after culture relative to the number of cells at the initiation of cell culture.

[5] = system: Human chronic myelocytic leukemia cells, K562, ALDH (−) fraction (general cancer cells); experiment: Cancer stem-cell selective inhibitory action against chronic myelocytic leukemia cells, ALDH (−) fraction; type: cell-based; conditions: K562 ALDH(−), 10 μg/ml, 24 hours
Experimental: as §1, §2

[6] = system: KLM1-KOr cells, ALDH (+) fraction, transplanted to zebra young fish; experiment: Cancer metastasis suppressive effect in cancer cell metastatic foci (region within 300 to 450 μm from a transplanted tumor); type: in vivo; conditions: 72 hours later, region within 300 to 450 μm from transplanted tumor; for Inhibition rate 100×(1−F1/F0), metastatic foci: administered to yolk sac 24 hours after transplantation (Compound (26) 745 μmol/KgBW)
Experimental: From cell strain […], in which KLM1 cells have fluorescent protein Kusabira-Orange constantly expressed, a fraction (ALDH (+)) containing 80% or more of cancer stem cells was extracted with ALDEFLUOR reagent (manufactured by VERITAS Corporation) and FACSAria flow cytometry (manufactured by Nippon Becton, Dickinson and Company). The extracted KLM1-KOr cells were transplanted to zebra young fish (MieKomachi lineage, 2 days after fertilization) and the fish were raised in a 32° C. environment. Furthermore, 24 hours after transplantation, Compound (26) (745 μmol/KgBW) was administered to yolk sac.
72 hours later, cells transplanted to the zebra young fish were observed under MZ16F fluorescent stereoscopic microscope (manufactured by Leica Microsystems) and a fluorescent image of the region within 300 to 450 μm from a transplanted tumor was photographed and then fluorescent intensity was quantified.
As a reference, the fluorescent intensity of cells, which were cultured in the same operation method as above in a medium containing a 0.1% DMSO solution in place of Compound (26), was used.
Fluorescent images were photographed in the same manner as in Experimental Example 26 except that Imatinib and Dasatinib were respectively used in place of the compound (26) in Experimental Example 75.
The inhibition rate herein was obtained according to the expression: 100×(1−F1/F0), where the fluorescent intensity of cells when a test substance was added is represented by F1, and the fluorescent intensity of cells when a reference substance (DMSO) was added is represented by F0.

[7] = system: K562 ALDH (+) cells; experiment: Cancer stem-cell selective staining, ALDH (+) cells; type: cell-based, Human; conditions: cells of Experimental Examples 39, 42 and 45 (1 μg/ml, cultured for 24 hours), fluorescent microscope
Experimental: (§3) The cells cultured for 24 hours in each of Experimental Examples 39, 42 and 45 were subjected to nuclear staining with Hoechest33342 (manufactured by Dojindo Laboratories) and a fluorescent image observed under AXIOVERT200M inverted fluorescent microscope (manufactured by Carl Zeiss) was photographed.

[8] = system: K562 ALDH (−) cells; experiment: Cancer stem-cell selective staining, ALDH (−) cells; type: cell-based, Human; conditions: cells of Experimental Examples 39, 42 and 45 (1 μg/ml, cultured for 24 hours), fluorescent microscope
Experimental: as §3

Excitation wavelength λex [1]	Fluorescence wavelength λem [1]	Compound	Cancer cell growth rate (%) [2]	Evaluation (cancer cell growth rate) [2]	ALDH(+) Superiority evaluation ([3]; K562, 10 μg/ml)	ALDH(+)/ALDH(−) ([3]; K562, 10 μg/ml)	Cancer cell growth rate (%) [4]	Evaluation (cancer cell growth rate) [4]	ALDH(+) growth rate [3]	Growth suppression evaluated [3]	ALDH(−) growth rate [5]	also measured
485 nm	575 nm	CCN1/C(=C\C=C\c2sc3ccccc3[n+]2CC)Sc2ccccc21 [Compound 1]	13.8%	A (Cancer cell growth rate is less than 20%)	B (The value of the growth rate of ALDH (+)/the growth rate of ALDH (−) is 0.8 or more and less than 0.95)	0.87	31.9%	B (Cancer cell growth rate is 20% or more and less than 50%)				
560 nm	628 nm	CCN1/C(=C\C(C)=C\c2sc3ccccc3[n+]2CC)Sc2ccccc21 [Compound 5]	15.0%	A (Cancer cell growth rate is less than 20%)	A (The value of the growth rate of ALDH (+)/the growth rate of ALDH (−) is less than 0.8)	0.79	6.4%	A (Cancer cell growth rate is less than 20%)				
491 nm	510 nm	CCN1/C(=C\C=C\c2oc3ccccc3[n+]2CC)Oc2ccccc21 [Compound 14]			A (The value of the growth rate of ALDH (+)/the growth rate of ALDH (−) is less than 0.8)	0.77			0.38	A (The growth rate of ALDH (+) is less than 0.5)	0.49	
553 nm	570 nm	CCN1/C(=C\C=C\C2=[N+](CC)c3ccccc3C2(C)C)C(C)(C)c2ccccc21.[I-] [Compound 22]			A (The value of the growth rate of ALDH (+)/the growth rate of ALDH (−) is less than 0.8)	0.75			0.22	A (The growth rate of ALDH (+) is less than 0.5)	0.29	
684 nm	710 nm	CN1\C(=C/C=C/C=C/C2=[N+](C)c3ccc4ccccc4c3C2(C)C)C(C)(C)c2c1ccc1ccccc21 [Compound 26]					8.6%	A (Cancer cell growth rate is less than 20%)				Inhibition rate 100×(1−F1/F0), metastatic foci [6]: 80; Evaluation (inhibition rate, metastatic foci) [6]: A (Inhibition rate is 70 or more)
650 nm	675 nm	CCCN1\C(=C/C=C/C=C/C2=[N+](CCC)c3ccccc3C2(C)C)C(C)(C)c2ccccc21 [Compound 27]	7.7%	A (Cancer cell growth rate is less than 20%)	A (The value of the growth rate of ALDH (+)/the growth rate of ALDH (−) is less than 0.8)	0.56	6.0%	A (Cancer cell growth rate is less than 20%)				
		CCN1/C(=C/C=C/C=C/C=C/c2oc3ccccc3[n+]2CC)Oc2ccccc21 [Compound 33]			B (The value of the growth rate of ALDH (+)/the growth rate of ALDH (−) is 0.8 or more and less than 0.95)	0.84			0.83	B (The growth rate of ALDH (+) is 0.5 or more and less than 0.95)	1.00	
638 nm	661 nm	CCN1C=C/C(=C/C=C/c2sc3ccccc3[n+]2CC)c2ccccc21.[I-] [Compound 34]			A (The value of the growth rate of ALDH (+)/the growth rate of ALDH (−) is less than 0.8)	0.72	26.6%	B (Cancer cell growth rate is 20% or more and less than 50%)	0.48	A (The growth rate of ALDH (+) is less than 0.5)	0.67	
571 nm	620 nm	CCN1C=C/C(=C/C=C/c2oc3ccccc3[n+]2CC)c2ccccc21 [Compound 35]			A (The value of the growth rate of ALDH (+)/the growth rate of ALDH (−) is less than 0.8)	0.69	29.7%	B (Cancer cell growth rate is 20% or more and less than 50%)				ALDH(+) Superiority evaluation ([3]; K562, 0.05 μg/ml): A (The value of the growth rate of ALDH (+)/the growth rate of ALDH (−) is less than 0.8); ALDH(+)/ALDH(−) ([3]; K562, 0.05 μg/ml): 0.77; ALDH(+) Superiority evaluation ([3]; K562, 0.5 μg/ml): A (The value of the growth rate of ALDH (+)/the growth rate of ALDH (−) is less than 0.8); ALDH(+)/ALDH(−) ([3]; K562, 0.5 μg/ml): 0.66; ALDH(+) Superiority evaluation ([3]; K562, 1 μg/ml): B (The value of the growth rate of ALDH (+)/the growth rate of ALDH (−) is 0.8 or more and less than 0.95); ALDH(+)/ALDH(−) ([3]; K562, 1 μg/ml): 0.90; ratio of ALDH (+) cells stained [7]: 82.5%; ratio of ALDH (−) cells stained [8]: 21.4%
830 nm	831 nm	CN1/C(=C/C=C2\CCCC(/C=C/C3=[N+](C)c4ccc5ccccc5c4C3(C)C)=C2Cl)C(C)(C)c2c1ccc1ccccc21 [Compound 49]	5.3%	A (Cancer cell growth rate is less than 20%)			12.0%	A (Cancer cell growth rate is less than 20%)				
		CCN1/C(=C/C=C2\CCCC(/C=C/C3=[N+](CC)c4ccc(OC)cc4C34CCCCC4)=C2Oc2ccc(C(c3ccccc3)c3ccccc3)cc2)C2(CCCCC2)c2cc(OC)ccc21 [Compound 58]			B (The value of the growth rate of ALDH (+)/the growth rate of ALDH (−) is 0.8 or more and less than 0.95)	0.82			0.70	B (The growth rate of ALDH (+) is 0.5 or more and less than 0.95)	0.85	
		Cc1nc(Nc2ncc(C(=O)Nc3c(C)cccc3Cl)s2)cc(N2CCN(CCO)CC2)n1 [Dasatinib]										Inhibition rate 100×(1−F1/F0), metastatic foci [6]: 36; Evaluation (inhibition rate, metastatic foci) [6]: C (Inhibition rate is less than 50)
